Reference: US5104862A, “Bethalactam elastase inhibitors containing phosphorous acid derivatives at the 4-position of the 2-azetidinone” (Merck & Co., Inc., priority 1991, dated 1992)

What follows are compounds tested against T1, human polymorphonuclear leukocyte elastase (human granulocyte elastase) (Homo sapiens, UniProt P08246) (assay: Enzyme assay for inhibition of human polymorphonuclear leukocyte elastase via hydrolysis of Boc-AAPAN or Boc-AAPVN). Details: crude extract of human PMN; 0.2 mM Boc-AAPAN or Boc-AAPVN; 0.05M TES buffer pH 7.5; read-out: kobs /I, second order rate constant for inactivation of the enzyme.
T1 construct: Crude extract of human polymorphonuclear leukocytes (PMN) containing elastase activity; endogenous in cells; host or cells: human polymorphonuclear leukocytes (crude extract)
T1 sequence (P08246 30-267): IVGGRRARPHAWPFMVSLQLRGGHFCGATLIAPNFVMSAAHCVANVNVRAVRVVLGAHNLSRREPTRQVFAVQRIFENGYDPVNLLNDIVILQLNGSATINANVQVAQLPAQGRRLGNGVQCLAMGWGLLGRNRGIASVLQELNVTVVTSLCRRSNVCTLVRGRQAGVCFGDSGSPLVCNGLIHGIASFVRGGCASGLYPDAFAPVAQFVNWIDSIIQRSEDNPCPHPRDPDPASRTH
Type: biochemical
Description: Enzyme Assays for the Inhibition of Human Polymorphonuclear Leukocyte Elastase Via Hydrolysis of N-t-Boc-alanyl-alanyl-prolyl-alanine-p-nitroanilide (Boc-AAPAN) or N-t-Boc-alanyl-prolyl-valine-p-nitroanilide (Boc-AAPVN) Reagent
0.05M TES (N-tris[hydroxymethyl]methyl-2-amino-ethanesulfonic acid) Buffer, pH 7.5.
0.2 mM Boc-AAPAN or Boc-AAPVN.
To prepare substrate, the solid was first dissolved in 10.0 ml DMSO. Buffer at pH 7.5 was then added to a final volume of 100 ml.
Crude extract of human polymorphonuclear leukocytes (PMN) containing elastase activity.
Inhibitors (azetidinones) to be tested dissolved in DMSO just before use.
To 1.0 ml of 0.2 mM Boc-AAPAN in a cuvette, 0.01-0.1 ml of DMSO with or without inhibitor was added. After mixing, a measurement was taken at 410 mμ to detect any spontaneous hydrolysis due to presence of test compound. 0.05 Milliliters of PMN extract was then added and the ΔOD/min at 410 mμ was measured and recorded. Beckman model 35 spectrophotometer was used.
The elastase activity in the crude PMN extract may vary from one preparation to another. A control of each new batch is run, and the volume added in the assay procedure is adjusted according to activity.
Compound `C=CCP(=O)(Cc1ccc(O[C@@H]2N(C(=O)N[C@H](CCC)c3ccc(C)cc3)C(=O)C2(CC)CC)cc1)OCC` (stereo partly drawn) [Example 3, (4S)-3,3-Diethyl-1-[(R)-α-n-propyl(4-methyl)-benzylaminocarbonyl]-4-[4-(allyl(ethoxyphosphinyl)methyl)phenoxy]-azetidin-2-one] has a kinact/KI of 1.3e+06 M⁻¹ s⁻¹.
In the case of `CCC[C@@H](NC(=O)N1C(=O)C(CC)(CC)[C@@H]1Oc1ccc(CP(=O)(O)c2ccccc2)cc1)c1ccc(C)cc1` [Example 2], the kinact/KI is reported as 1.2e+06 M⁻¹ s⁻¹.
`C=CCP(=O)(O)Cc1ccc(O[C@@H]2N(C(=O)N[C@H](CCC)c3ccc(C)cc3)C(=O)C2(CC)CC)cc1` [Example 4, (4S)-3,3-Diethyl-1-[(R)-α-n-propyl(4-methyl)-benzylaminocarbonyl]-4-[4-(allyl(hydroxyphosphinyl)methyl)phenoxy]-azetidin-2-one] gave a kinact/KI of 740000 M⁻¹ s⁻¹.
`CCC[C@@H](NC(=O)N1C(=O)C(CC)(CC)[C@@H]1Oc1ccc(CP(C)(=O)O)cc1)c1ccc(C)cc1` [Example 6, (4S)-3,3-Diethyl-1-[(R)-α-n-propyl(4-methyl)-benzylaminocarbonyl]-4-[4-(methyl(hydroxyphosphinyl)methyl)phenoxy]-azetidin-2-one] was tested, and the kinact/KI was 420000 M⁻¹ s⁻¹.
`CCC[C@@H](NC(=O)N1C(=O)C(CC)(CC)[C@@H]1Oc1ccc(CP(=O)(O)CCC)cc1)c1ccc(C)cc1` [Example 8, (4S)-3,3-Diethyl-1-[(R)-α-n-propyl(4-methyl)-benzylaminocarbonyl]-4-[4-(n-propyl(hydroxyphosphinyl)methyl)-phenoxy]-azetidin-2-one] showed a kinact/KI of 910000 M⁻¹ s⁻¹.
